From patent publication US5629322A, “Cyclic amidine analogs as inhibitors of nitric oxide synthase” (priority 1995, dated 1997)
Structures can show the parent of a compound that is named as a salt. Where two headings read alike, the source gives them in different places.

Assays:
NO synthase = test: Assay Protocol for NOS activity: % inhibition at 50 uM (formation of L-[3H]citrulline from L-[3H]arginine); type: biochemical
Experimental: (§1) Assay Protocol for NOS activity
(§2) NOS activity is measured as the formation of L-[2,3,4,5-^3 H]Citrullinefrom L-[2,3,4,5-^3 H]Arginine. The incubation buffer (100 μL) contained; 100 mM TES, pH 7.5, 5 μM FAD, 5 μM FMN, 10 μM BH4, 0.5 mM NADPH, 0.5 mM DTT, 0.5 mg/mL BSA, 2 mM CaCl2, 10 μg/mL calmodulin (bovine), 1 μM L-Arg, 0.2 μCi L-[2,3,4,5-^3 H]Arg, and the inhibitor in aqueous DMSO (max. 5%). The reaction is initiated by addition of enzyme. Incubations are performed at room temperature for 30 minutes and stopped by the addition of an equal volume of quenching buffer consisting of 200 mM sodium citrate, pH 2.2, 0.02% sodium azide. Reaction products are separated by passing through a cation exchange resin and quantitated as cpm by scintillation counting.

iNOS = iNOS (Homo sapiens, UniProt P35228); test: NOS activity assay, iNOS (L-[3H]citrulline formation); type: biochemical
Experimental: as §1, §2

ecNOS = ecNOS (Homo sapiens, UniProt P29474); test: NOS activity assay, ecNOS (L-[3H]citrulline formation); type: biochemical
Experimental: as §1, §2

ncNOS = ncNOS (Homo sapiens, UniProt P29475); test: biochemical; conditions: read-out: IC50 ncNOS
Sequence of ncNOS (P29475 whole entry): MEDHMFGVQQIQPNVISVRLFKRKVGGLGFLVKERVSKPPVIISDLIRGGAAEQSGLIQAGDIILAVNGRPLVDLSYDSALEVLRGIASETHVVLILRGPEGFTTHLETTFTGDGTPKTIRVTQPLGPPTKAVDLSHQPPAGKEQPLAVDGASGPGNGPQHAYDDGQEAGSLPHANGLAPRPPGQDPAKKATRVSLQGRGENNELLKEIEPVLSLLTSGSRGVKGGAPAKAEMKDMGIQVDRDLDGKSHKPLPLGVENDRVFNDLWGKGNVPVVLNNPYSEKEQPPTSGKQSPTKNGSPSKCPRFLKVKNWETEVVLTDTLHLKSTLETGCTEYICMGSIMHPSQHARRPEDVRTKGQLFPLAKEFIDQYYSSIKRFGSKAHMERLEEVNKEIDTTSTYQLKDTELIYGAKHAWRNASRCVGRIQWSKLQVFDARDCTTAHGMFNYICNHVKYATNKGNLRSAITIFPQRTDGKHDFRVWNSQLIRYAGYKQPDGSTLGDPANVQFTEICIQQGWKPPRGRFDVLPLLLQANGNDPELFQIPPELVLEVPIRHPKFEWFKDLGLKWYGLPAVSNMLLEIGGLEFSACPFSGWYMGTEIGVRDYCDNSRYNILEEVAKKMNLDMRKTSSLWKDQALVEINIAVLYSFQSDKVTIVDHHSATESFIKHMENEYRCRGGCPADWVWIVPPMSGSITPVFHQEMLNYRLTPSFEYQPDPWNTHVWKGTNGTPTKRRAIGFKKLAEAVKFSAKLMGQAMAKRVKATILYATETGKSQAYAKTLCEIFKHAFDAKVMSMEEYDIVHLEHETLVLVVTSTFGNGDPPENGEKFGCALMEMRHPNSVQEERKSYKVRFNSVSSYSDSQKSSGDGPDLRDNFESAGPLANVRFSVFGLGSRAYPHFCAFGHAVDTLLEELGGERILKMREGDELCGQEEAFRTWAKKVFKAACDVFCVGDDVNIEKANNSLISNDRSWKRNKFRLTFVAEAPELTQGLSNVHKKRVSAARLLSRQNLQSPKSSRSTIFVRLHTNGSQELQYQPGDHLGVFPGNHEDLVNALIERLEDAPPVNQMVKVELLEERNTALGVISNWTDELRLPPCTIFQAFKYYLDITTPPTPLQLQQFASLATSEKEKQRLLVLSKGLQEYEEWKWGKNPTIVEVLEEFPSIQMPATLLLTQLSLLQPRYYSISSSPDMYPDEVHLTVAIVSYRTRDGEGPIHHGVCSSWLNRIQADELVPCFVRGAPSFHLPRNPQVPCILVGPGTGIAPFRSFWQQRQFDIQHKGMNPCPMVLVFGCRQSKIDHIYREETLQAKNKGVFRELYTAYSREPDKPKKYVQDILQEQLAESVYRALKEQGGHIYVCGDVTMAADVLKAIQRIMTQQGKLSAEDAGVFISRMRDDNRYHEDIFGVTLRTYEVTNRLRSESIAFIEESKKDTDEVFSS

IC50 (iNOS; Table 5, read-out: IC50 iNOS) [µM]	IC50 (ecNOS; Table 5, read-out: IC50 ecNOS) [µM]	IC50 (ncNOS; Table 5) [µM]	Structure (SMILES)	other results
≤ 10	≤ 50	≤ 10	NC1=NCCc2ccccc21 [Table 5: C, (CH)4, H, H, H, H]	–
≤ 50	≤ 50	≤ 1	CC1CNC(=N)C(C)C1 (centres unmarked) [Table 5: CH2, CH3, H, CH3, H, H, H, 2-Imino-3,5-dimethylpiperidine hydrochloride]	–
–	–	≤ 1	CC1CCCN=C1N (centres unmarked) [Table 5: CH2, CH3, H, H, H, H, H, 2-Imino-3-methylpiperidine hydrochloride]	IC50 (iNOS): ≤ 10 µM; IC50 (ecNOS): ≤ 10 µM
≤ 10	≤ 50	≤ 10	CC1(C)CCC(=N)NC1 [Table 5: CH2, H, H, (CH3)2, H, H, H, 2-Imino-5,5-dimethylpiperidine hydrochloride]	–
≤ 50	> 50	≤ 10	NC1=Nc2ccccc2CC1 [Table 5: CH2, H, H, (CH)4, H, H, 3,4-Dihydro-2-aminoquinoline hydrochloride]	–
≤ 10	> 50	> 50	N=C1CCC(C(F)(F)F)CN1 (centres unmarked) [Table 5: CH2, H, H, CF3, H, H, H, 2-Imino-5-trifluoro-piperidine]	–
≤ 1	≤ 10	≤ 10	CCCOC1CCC(=N)NC1 (centres unmarked) [Table 5: CH2, H, H, O-n-C3H7, H, H, H, 2-Imino-5-n-propyloxy-piperidine, acetic acid salt]	–
≤ 10	> 50	≤ 10	CC1C(=N)NCC2CCCC21 (stereo not drawn) [Table 5: CH, CH3, (CH2)3, H, H, H, 4-Imino-5-cis-methyl-3-azabicyclo[4.3.0]nonane, hydrochloride]	–
≤ 1	≤ 1	≤ 1	CO[C@@H]1CNC(=N)C[C@@H]1C [Table 5: CH, H, (S)CH3, (S)OCH3, H, H, H, hydrochloride]	–
≤ 1	≤ 10	≤ 1	C[C@H]1CC(=N)NC[C@H]1O [Table 5: CH, H, (S)CH3, (S)OH, H, H, H, 2-Imino-5(S)-hydroxy-4(S)-methyl-piperidine, hydrochloride]	–
≤ 1	≤ 1	≤ 1	CC1CNC(=N)CC1C (centres unmarked) [Table 5: CH, H, CH3, CH3, H, H, H]	–
≤ 10	> 50	> 50	CCCC1CCN=C(N)C1 (centres unmarked) [Table 5: CH, H, n-C3H7, H, H, H, H, 2-Imino-4-propylpiperidine hydrochloride]	–
≤ 50	> 50	≤ 50	N=C1CNCCN1 [Table 5: N, H, H, H, H, H, H, 2-Iminopiperazine hydrochloride]	–
≤ 1	≤ 10	≤ 1	N=C1CSCCN1 [Table 5: S, H, --, H, H, H, H, 3-Iminothiomorpholine hydrochloride]	–

Second part, the compound before the results:

Structure (SMILES)	IC50 (iNOS; Table 5, read-out: IC50 iNOS) [µM]	IC50 (ecNOS; Table 5, read-out: IC50 ecNOS) [µM]	IC50 (ncNOS; Table 5) [µM]	other results
N=C1CCCCCN1	–	–	–	% inhibition (NO synthase; Table 3): 96%
N=C1CCCCCCN1	–	–	–	% inhibition (NO synthase; Table 3): 100%
N=C1CCCCCCCN1	–	–	–	% inhibition (NO synthase; Table 3): 100%
CC1CCC(=N)N1 (centres unmarked) [Table 1: CH3, H, H]	–	–	–	% inhibition (NO synthase; Table 1): 98%
N=C1CCCN1 [Table 1: H, H, H]	–	–	–	% inhibition (NO synthase; Table 1): 90%
c1ccc(CNC2=NCCCCC2)cc1 [Table 2: CH2 -phenyl]	–	–	–	% inhibition (NO synthase; Table 2): 3%
CCNC1=NCCCCC1 [Table 2: CH2 CH3]	–	–	–	% inhibition (NO synthase; Table 2): 55%
CNC1=NCCCCC1 [Table 2: CH3]	–	–	–	% inhibition (NO synthase; Table 2): 3%
C1CCN=C(NC2CCCCC2)CC1 [Table 2: cyclohexyl]	–	–	–	% inhibition (NO synthase; Table 2): 8%
CCCC1CC(N)=NC1CC (centres unmarked) [Table 4: H, n-C3H7, C2H5, H, H, 2-Imino-5-ethyl-4-propylpyrrolidine hydrochloride]	–	–	–	IC50 (iNOS; Table 4, read-out: IC50 iNOS): ≤ 50 µM; IC50 (ecNOS; Table 4, read-out: IC50 ecNOS): > 50 µM; IC50 (ncNOS; Table 4): ≤ 50 µM
CCCC1CC(N)=NC1C (centres unmarked) [Table 4: H, n-C3H7, CH3, H, H, 2-Imino-5-methyl-4-propylpyrrolidine hydrochloride]	–	–	–	IC50 (iNOS; Table 4, read-out: IC50 iNOS): ≤ 50 µM; IC50 (ecNOS; Table 4, read-out: IC50 ecNOS): > 50 µM; IC50 (ncNOS; Table 4): ≤ 50 µM
CCCC1CN=C(N)C1 (centres unmarked) [Table 4: H, n-C3H7, H, H, H, 2-Imino-4-propylpyrrolidine hydrochloride]	–	–	–	IC50 (iNOS; Table 4, read-out: IC50 iNOS): ≤ 50 µM; IC50 (ecNOS; Table 4, read-out: IC50 ecNOS): > 50 µM; IC50 (ncNOS; Table 4): > 50 µM
N=C1NCCC1S (centres unmarked) [Table 4: SH, H, H, H, H]	–	–	–	IC50 (iNOS; Table 4, read-out: IC50 iNOS): ≤ 50 µM; IC50 (ecNOS; Table 4, read-out: IC50 ecNOS): ≤ 50 µM; IC50 (ncNOS; Table 4): ≤ 1 µM
CC(C)(C)OC(=O)N1CCNC(=N)C1 [Table 5: N, H, CO2-t-C4H9, H, H, H, H, 4-t-Butoxycarbonyl-2-iminopiperazine hydrochloride]	≤ 50	> 50	> 50	–
N=C1CNC2CCCCC2N1 (centres unmarked) [Table 5: N, H, H, (CH2)4, H, H]	–	–	≤ 50	IC50 (iNOS): ≤ 10 µM; IC50 (ecNOS): > 50 µM
N=C1CCCN1 [drawing 15]	–	–	–	% inhibition (NO synthase; Table 3): 90%
N=C1CCCCN1 [drawing 16]	–	–	–	% inhibition (NO synthase; Table 3): 100%
